Patent US20260137697A1, “THIAZOLO[5,4-D]PYRIMIDINE COMPOUNDS, COMPOSITIONS COMPRISING THEM AND USES THEREOF” (University de Montreal, priority 2022, published 2026)

What was measured:
BRAF = molecular target: T1, BRAF (Homo sapiens, UniProt P15056); experiment: BRAF kinase activity assay (ADP-Glo); assay type: biochemical; conditions: Table 3; 10 μM ATP, kinase-dead MEK1 substrate
T1 construct: GST; purchased Millipore Sigma B4062-10UG
Method: (§1) Compound preparation: solid samples of each substance in 1dram vials were suspended in DMSO (Fisher Scientific) at a stock concentration of 20 mM. Stocks were kept at −20° C. and protected from light. If solubility of the compound at 20 mM appeared to be an issue, the initial concentration of the DMSO stock was changed to 10 mM or 5 mM.
(§2) In vitro enzymatic reactions were used for evaluating compounds intrinsic activity against BRAF, CRAF and ARAF. For BRAF and CRAF, 0.375 nM of purified GST-tagged kinases (cat. No. B4062-10UG and cat. No. R1656-10UG respectively from Millipore Sigma) were incubated with 75 nM of kinase-dead MEK1 substrate (cat. No. 40075; BPS Bioscience) in the presence of 10 μM of Ultrapure ATP (cat. No. V9102; Promega; part V915A) with and without the test compound in a buffer containing 50 mM HEPES pH 7.5, 10 mM MgCl2, 1 mM EDTA, 0.01% Brij-35 and 2 mM DTT. Separate reactions were performed with the MEK1 substrate and ATP as a blank control. ARAF kinase reactions were rigorously the same with the exception that kinase concentration was raised to 3.75 nM (cat. No. 1768-0000-1; Reaction Biology).
(§3) For compound treatment, 5 μL/well of test substance solution are placed in a 384-well proxyplate (Perkin Elmer) and mixed with 2× concentrated kinase reactions. The dilution series is selected so that nine concentrations cover a range from 100 nM to 0.01 nM. […] The final concentration of DMSO in the assay is set at 0.05%.
(§4) BRAF and CRAF kinase reactions were carried out for a total of 2 hours at 30° C. and then stopped by 1/2 dilution in ADP-Glo Reagent (cat. No. V9102; Promega; part V912C). Reactions were then incubated for 1 h at room temperature before addition of one volume of Kinase Detection Reagent (cat. No. V9102; Promega; part V917A). Plates were then equilibrated at room temperature for 30 minutes before detection of luminescence on a Synergy Neo2 plate reader (Biotek). The effect of each compound dilution on BRAF and CRAF kinase activity was expressed as % inhibition and calculated as follows. First, the internal 100% inhibition control (average of luminescence in kinase reactions comprising kinase dead MEK1 substrate alone) was subtracted from each data point. The average of DMSO (vehicle) controls (set as 0% inhibition) was established and used to calculate % inhibition:
(§5) IC50 values were obtained by plotting the kinase inhibition values and fitting the dose-activity curves using a log(agonist) versus response—variable slope (four parameters) function using either GraphPadPrism (V7.0) or Dotmatics Screening Ultra platform. Standards included in the ARAF kinase assay were Belvarafenib (MedChem Express cat. No. HY-109080; CAS No. 1446113-23-0), LXH254 (MedChem Express cat. No. HY-112089; CAS No. 1800398-38-2) and BGB283 (cat. No. HY-18957; CAS No. 1446090-79-4).

pERK, HCT116 cells = experiment: Phospho-ERK inhibition, AlphaLISA p-ERK 1/2, HCT-116; assay type: cell-based, human; conditions: Table 3; for IC50: HCT116 cells (KRAS G13D), 1 h treatment; for HCT116 pERK (Ymin %): lowest % inhibition value of the pERK IC50 curve, above −20% = no paradoxical induction
Method: All cancer cell lines (A375, A101D, A2058, RKO, HT29 SK-MEL 30, IPC298, HepG2, HCT-116, Lovo, SW620, SW480, NCI-H358, NCI-H2122, Calu-6, NCIH2087, NCIH1755, NCIH1666 and Mewo) were obtained from ATCC and cultured in RPM1-1640 medium (Gibco) supplemented with 5% heat inactivated fetal bovine serum (FBS, Wisent) at 37° C. under 5% CO2. Cells were maintained in T175 flasks (Greiner). They were passaged by removing the culture medium, washing once in 10 mL of room temperature Phosphate Buffered Saline (PBS; Wisent) and incubating at 37° C. with 2 mL of 0.05% Trypsin (Thermo-Fisher). Trypsin was then inactivated by adding complete growth medium and the cells were then replated in a T175 culture dish at the appropriate dilution. All cell lines were routinely tested for mycoplasma contamination. Tissue type and mutational status of each cell line can be found in Table B.
(c) Measurement of Phospho-ERK Inhibition in Cultivated Human Cancer Cell Lines by the AlphaLISA® SureFire® Ultra™ p-ERK 1/2 (Thr2O2/Tyr204)
AlphaLISA® SureFire® Ultra™ p-ERK 1/2 (Thr202/Tyr204) analysis was conducted on cells plated in 100 μL of complete RPMI-1640 growth medium in 96-well flat-bottomed transparent dishes (Costar) at a density indicated in Table C. Cells were maintained overnight at 37° C. under 5% CO2 before treatment with compounds' dilution series for one hour. The cell density in cells/cm^2 corresponds to cell number divided by the area of one well of a 96-well plate (0.143 cm^2).
In a dilution series 100 μL/well of test substance dilution prepared in complete RPMI-1640 growth media was added to the cells. The dilution series is selected so that ten concentrations cover a range from 10 μM to 0.33 nM. If necessary, the initial concentration of 10 μM is increased to 100 μM or lowered to 1 μM (as in the case of A375 and H1666 cells, which are generally more sensitive to the compounds) and further dilution is carried out accordingly. The final concentration of DMSO in the assay is set at 0.5%.
After treatment, media was removed, and cells were lysed in 50 μL of 1× AlphaScreen Ultra Lysis Buffer (Perkin Elmer). The AlphaLISA® SureFire® Ultra™ p-ERK 1/2 (Thr202/Tyr204) (PerkinElmer) reactions were performed with 5 μL of cell lysate according to the manufacturer's specifications in 384-well proxyplates (Perkin Elmer) followed by overnight incubation of the reactions at room temperature in a humidified chamber. After completion of the reactions, the signals were recorded on an EnVision plate reader (Perkin Elmer) using built in AlphaLISA® settings.
The effect of each compound dilution on the pERK signal was expressed in % inhibition and calculated as follows. An internal 100% inhibition control (1 μM trametinib, cat. No. HY-10999; MedChem Express; CAS No. 871700-17-3) was included in each plate and used as a measure of pERK background. First, the value obtained for trametinib was subtracted from each data point. The average of DMSO (vehicle) controls (set as 0% inhibition) was established and used to calculate % inhibition:
The ability of each compound to inhibit pERK signal was expressed as an IC50 value obtained by plotting the inhibition values for each data point of a dilution series and fitting the obtained curves using a log(agonist) versus response—variable slope (four parameters) function using GraphPadPrism (V7.0) or Dotmatics Screening Ultra platform.
When present, paradoxical pERK induction is inferred from the negative % inhibition values observed in the pERK IC50 curves of a compound.

CRAF = molecular target: T2, CRAF (Homo sapiens, UniProt P04049); experiment: CRAF kinase activity assay (ADP-Glo); assay type: biochemical; conditions: Table 3; 10 μM ATP, kinase-dead MEK1 substrate
T2 construct: fused on or other part: GST tag (N-terminal according to the vendor's product)
T2 sequence (P04049 whole entry Y340E/Y341E, form open, the tested form may be a part): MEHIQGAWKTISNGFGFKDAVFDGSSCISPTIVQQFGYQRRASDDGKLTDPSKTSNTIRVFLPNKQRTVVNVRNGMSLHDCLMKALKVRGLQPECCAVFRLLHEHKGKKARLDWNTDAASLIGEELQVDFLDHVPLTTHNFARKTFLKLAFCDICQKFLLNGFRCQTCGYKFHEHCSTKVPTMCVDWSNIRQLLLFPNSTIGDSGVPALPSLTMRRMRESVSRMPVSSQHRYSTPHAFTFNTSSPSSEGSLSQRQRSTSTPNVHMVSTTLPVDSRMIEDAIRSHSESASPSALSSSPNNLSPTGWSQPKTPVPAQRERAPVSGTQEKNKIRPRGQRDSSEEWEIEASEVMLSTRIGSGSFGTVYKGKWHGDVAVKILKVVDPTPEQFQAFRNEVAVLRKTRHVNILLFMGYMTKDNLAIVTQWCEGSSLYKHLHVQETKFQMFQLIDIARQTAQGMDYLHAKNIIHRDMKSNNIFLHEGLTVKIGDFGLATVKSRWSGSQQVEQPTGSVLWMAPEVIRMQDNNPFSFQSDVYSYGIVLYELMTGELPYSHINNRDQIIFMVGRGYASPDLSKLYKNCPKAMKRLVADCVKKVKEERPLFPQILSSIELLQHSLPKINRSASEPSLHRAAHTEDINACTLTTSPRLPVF
Method: as §1, §2, §3, §4, §5

T1 sequence (P15056 whole entry): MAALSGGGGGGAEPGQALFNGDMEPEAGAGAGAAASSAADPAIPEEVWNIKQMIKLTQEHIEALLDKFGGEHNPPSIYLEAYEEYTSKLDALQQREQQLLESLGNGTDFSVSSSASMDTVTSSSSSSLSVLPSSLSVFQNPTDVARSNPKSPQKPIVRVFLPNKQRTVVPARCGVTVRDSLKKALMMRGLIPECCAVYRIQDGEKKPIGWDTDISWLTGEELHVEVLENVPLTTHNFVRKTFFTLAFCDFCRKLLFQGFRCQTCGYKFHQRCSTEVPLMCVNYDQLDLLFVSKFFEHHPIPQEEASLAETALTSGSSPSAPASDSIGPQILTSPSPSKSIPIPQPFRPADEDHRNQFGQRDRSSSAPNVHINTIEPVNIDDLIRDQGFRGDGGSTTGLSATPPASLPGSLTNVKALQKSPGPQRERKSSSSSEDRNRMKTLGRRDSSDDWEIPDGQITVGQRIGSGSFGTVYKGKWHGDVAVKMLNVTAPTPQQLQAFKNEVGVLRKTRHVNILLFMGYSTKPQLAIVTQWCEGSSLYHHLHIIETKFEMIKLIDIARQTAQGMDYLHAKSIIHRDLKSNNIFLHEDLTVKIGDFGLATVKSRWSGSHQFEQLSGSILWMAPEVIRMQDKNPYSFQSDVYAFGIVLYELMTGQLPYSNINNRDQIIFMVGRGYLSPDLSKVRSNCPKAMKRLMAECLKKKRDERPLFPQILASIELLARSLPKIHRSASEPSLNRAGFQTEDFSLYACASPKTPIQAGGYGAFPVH

In the case of `Cc1ncn(-c2nc3c(Nc4c(F)ccc(NS(=O)(=O)c5cccc(F)c5C)c4F)ncnc3s2)c1C` [Example 1], the IC50 (BRAF) is reported as 1 to 10 nM, the IC50 (pERK, HCT116 cells) is reported as under 500 nM and the “HCT116 pERK (Ymin %)” value (pERK, HCT116 cells) is reported as −11%. It also gave an IC50 (CRAF) of under 10 nM.
With `Cc1c(F)cccc1S(=O)(=O)Nc1ccc(F)c(Nc2ncnc3sc(-n4cnc5c(N)cccc54)nc23)c1F` [Example 2] the IC50 (BRAF) was 1 to 10 nM, the IC50 (pERK, HCT116 cells) was under 500 nM and the “HCT116 pERK (Ymin %)” value (pERK, HCT116 cells) was −1%. It also gave an IC50 (CRAF) of 10 to 50 nM.
For `Nc1cccc2c1ncn2-c1nc2c(Nc3c(F)ccc(NS(=O)(=O)c4cccc(Cl)c4Cl)c3F)ncnc2s1` [Example 3], the IC50 (BRAF) was 1 to 10 nM, the IC50 (pERK, HCT116 cells) was under 500 nM and the “HCT116 pERK (Ymin %)” value (pERK, HCT116 cells) was −9%. For the same molecule, the IC50 (CRAF) was under 10 nM.
`O=S(=O)(Nc1ccc(F)c(Nc2ncnc3sc(-n4cnc5ccccc54)nc23)c1F)c1cccc(Cl)c1Cl` [Example 4, N-[3-[[2-(benzimidazol-1-yl)thiazolo[5,4-d]pyrimidin-7-yl]amino]-2,4-difluoro-phenyl]-2,3-dichloro-benzenesulfonamide] gave an IC50 (BRAF) of 1 to 10 nM, an IC50 (pERK, HCT116 cells; Homo sapiens, HCT-116) of 500 to 1000 nM and an IC50 (CRAF) of under 10 nM.
For `Cc1c(Cl)cccc1S(=O)(=O)Nc1ccc(F)c(Nc2ncnc3sc(-n4cnc5c(N)cccc54)nc23)c1F` [Example 5], the IC50 (BRAF) was 1 to 10 nM, the IC50 (pERK, HCT116 cells) was under 500 nM and the “HCT116 pERK (Ymin %)” value (pERK, HCT116 cells) was −6%. For the same molecule, the IC50 (CRAF) was under 10 nM.
For `Cc1c(Cl)cccc1S(=O)(=O)Nc1ccc(F)c(Nc2ncnc3sc(-n4cnc5ccccc54)nc23)c1F` [Example 6], the IC50 (BRAF) was 1 to 10 nM, the IC50 (pERK, HCT116 cells) was 500 to 1000 nM and the “HCT116 pERK (Ymin %)” value (pERK, HCT116 cells) was −4%. It also gave an IC50 (CRAF) of under 10 nM.
With `Cc1c(F)cccc1S(=O)(=O)Nc1ccc(F)c(Nc2ncnc3sc(-n4cnc5ccccc54)nc23)c1F` [Example 7] the IC50 (BRAF) was 1 to 10 nM, the IC50 (pERK, HCT116 cells) was under 500 nM and the “HCT116 pERK (Ymin %)” value (pERK, HCT116 cells) was −5%. For the same molecule, the IC50 (CRAF) was under 10 nM.
Work on `Cc1c(F)cccc1S(=O)(=O)Nc1ccc(F)c(Nc2ncnc3sc(-n4cnc5c(-c6cccnc6)cccc54)nc23)c1F` [Example 8] yielded an IC50 (BRAF) of 1 to 10 nM, an IC50 (pERK, HCT116 cells; Homo sapiens, HCT-116) of 500 to 1000 nM and an IC50 (CRAF) of 10 to 50 nM.
With `O=S(=O)(Nc1ccc(F)c(Nc2ncnc3sc(-n4cnc5c(-c6cccnc6)cccc54)nc23)c1F)c1cccc(Cl)c1Cl` [Example 9] the IC50 (BRAF) was 1 to 10 nM, the IC50 (pERK, HCT116 cells) was 500 to 1000 nM and the “HCT116 pERK (Ymin %)” value (pERK, HCT116 cells) was −9%. The IC50 (CRAF) was under 10 nM.
With `Cc1c(Cl)cccc1S(=O)(=O)Nc1ccc(F)c(Nc2ncnc3sc(-n4cnc5c(-c6cccnc6)cccc54)nc23)c1F` [Example 10] the IC50 (BRAF) was 1 to 10 nM, the IC50 (pERK, HCT116 cells) was 1000 to 10000 nM and the “HCT116 pERK (Ymin %)” value (pERK, HCT116 cells) was −2%. For the same molecule, the IC50 (CRAF) was 10 to 50 nM.
In the case of `CN(Cc1ccncc1)S(=O)(=O)c1cn(-c2nc3c(Nc4c(F)ccc(NS(=O)(=O)c5cccc(Cl)c5Cl)c4F)ncnc3s2)c2ccccc12` [Example 11], the IC50 (BRAF) is reported as 1 to 10 nM, the IC50 (pERK, HCT116 cells) is reported as 1000 to 10000 nM and the “HCT116 pERK (Ymin %)” value (pERK, HCT116 cells) is reported as 4%. For the same molecule, the IC50 (CRAF) was under 10 nM.
